# Measured values published in patent publication US9951049B2, “Pyrazole linked benzimidazole conjugates and a process for preparation thereof” (Council of Scientific & Industrial Reseach, priority 2014, dated 2018).
# Read-outs that look alike come from different tables or passages of the source.
# Experiments:
# HL-60(TB) = test: NCI SRB screen, HL-60(TB); format: cell-based; settings: Homo sapiens, Leukemia, 48 h
# SR = test: NCI SRB screen, SR; settings: Homo sapiens, 48 h, read-out: GI50 values
# M14 = test: NCI SRB screen, M14; settings: Homo sapiens, M14, 48 h, read-out: GI50 values
# HT29 = test: NCI SRB screen, HT29; settings: Homo sapiens, HT-29, 48 h, read-out: GI50 values
# A498 = test: NCI SRB screen, A498; settings: Homo sapiens, A498, 48 h, read-out: GI50 values
# ACHN = test: NCI SRB screen, ACHN; settings: Homo sapiens, 48 h, read-out: GI50 values
# MCF7 = test: NCI SRB screen, MCF7; settings: Homo sapiens, MCF7, 48 h, read-out: GI50 values
# 786-0 = test: NCI SRB screen, 786-0; settings: Homo sapiens, 786-0, 48 h, read-out: GI50 values
# TK-10 = test: NCI SRB screen, TK-10; settings: Homo sapiens, TK-10, 48 h, read-out: GI50 values
# HCT-15 = test: NCI SRB screen, HCT-15; settings: Homo sapiens, HCT-15, 48 h, read-out: GI50 values
# SW-620 = test: NCI SRB screen, SW-620; settings: Homo sapiens, SW-620, 48 h, read-out: GI50 values
# SF-268 = test: NCI SRB screen, SF-268; settings: Homo sapiens, SF-268, 48 h, read-out: GI50 values
# SNB-19 = test: NCI SRB screen, SNB-19; settings: Homo sapiens, SNB-19, 48 h, read-out: GI50 values
# CAKI-1 = test: NCI SRB screen, CAKI-1; settings: Homo sapiens, CAKI-1, 48 h, read-out: GI50 values
# DU-145 = test: NCI SRB screen, DU-145; settings: Homo sapiens, DU-145, 48 h, read-out: GI50 values
# BT-549 = test: NCI SRB screen, BT-549; settings: Homo sapiens, BT-549, 48 h, read-out: GI50 values
# NCI-H23 = test: NCI SRB screen, NCI-H23; settings: Homo sapiens, NCI-H23, 48 h, read-out: GI50 values
# OVCAR-8 = test: NCI SRB screen, OVCAR-8; settings: Homo sapiens, OVCAR-8, 48 h, read-out: GI50 values
# SK-OV-3 = test: NCI SRB screen, SK-OV-3; settings: Homo sapiens, SK-OV-3, 48 h, read-out: GI50 values
# NCI-H460 = test: NCI SRB screen, NCI-H460; settings: Homo sapiens, NCI-H460, 48 h, read-out: GI50 values
# NCI-H522 = test: NCI SRB screen, NCI-H522
# HCC-2998 = test: NCI SRB screen, HCC-2998; settings: Homo sapiens, HCC 2998, 48 h, read-out: GI50 values
# UACC-257 = test: NCI SRB screen, UACC-257; settings: Homo sapiens, UACC-257, 48 h, read-out: GI50 values
# RPMI-8226 = test: NCI SRB screen, RPMI-8226; settings: Homo sapiens, RPMI-8226, 48 h, read-out: GI50 values
# SK-MEL-28 = test: NCI SRB screen, SK-MEL-28; settings: Homo sapiens, SK-MEL-28, 48 h, read-out: GI50 values
# NCI/ADR-RES = test: NCI SRB screen, NCI/ADR-RES; settings: Homo sapiens, 48 h, read-out: GI50 values
# MDA-MB-231/ATCC = test: NCI SRB screen, MDA-MB-231/ATCC; settings: Homo sapiens, MDA-MB-231, 48 h, read-out: GI50 values
# [1] = tested on: Ovarian cancer cell lines; test: NCI SRB screen, Ovarian panel average; settings: Homo sapiens, 48 h, read-out: Log10 GI50 (converted)
# Melanoma cell lines = test: NCI SRB screen, Melanoma panel average; settings: Homo sapiens, 48 h, read-out: Log10 GI50 (converted)
# MDA-MB-435 [2] = test: NCI SRB screen, MDA-MB-435 (Breast panel); settings: Homo sapiens, MDA-MB-435, 48 h, read-out: GI50 values
# MDA-MB-435 [3] = test: NCI SRB screen, MDA-MB-435 (Melanoma panel); settings: Homo sapiens, MDA-MB-435, 48 h, read-out: GI50 values
# [4] = tested on: Non-small-cell lung cancer cell lines; test: NCI SRB screen, Non-small-cell lung panel average; settings: Homo sapiens, 48 h, read-out: Log10 GI50 (converted)
# [5] = Homo sapiens, NCI-H522, 48 h, read-out: GI50 values, Non-small cell lung, NCI-H522
SMILES,GI50 (HL-60(TB)),GI50 (SR),GI50 (M14),GI50 (HT29),GI50 (A498),GI50 (ACHN),GI50 (MCF7),GI50 (786-0),GI50 (TK-10),GI50 (HCT-15),GI50 (SW-620),GI50 (SF-268),GI50 (SNB-19),GI50 (CAKI-1),GI50 (DU-145),GI50 (BT-549),GI50 (NCI-H23),GI50 (OVCAR-8),GI50 (SK-OV-3),GI50 (NCI-H460),also measured
"Fc1ccc2[nH]c(-c3cc(-c4ccc5c(c4)OCO5)n[nH]3)nc2c1 [7g, 2-(3-(benzo[d][1,3]dioxol-5-yl)-1H-pyrazol-5-yl)-5-fluoro-1H-benzo[d]imidazole]",2.74 µM,4.95 µM,4.17 µM,5.77 µM,4.66 µM,3.64 µM,3.53 µM,7.13 µM,1.3 µM,3.73 µM,9.34 µM,6.05 µM,10 µM,2.71 µM,8.24 µM,2.16 µM,8.84 µM,3.43 µM,1.24 µM,6.06 µM,GI50 (NCI-H522; [5]): 2.56 µM; GI50 (HCC-2998): 5.37 µM; GI50 (UACC-257): 1.02 µM; GI50 (RPMI-8226): 1.09 µM; GI50 (SK-MEL-28): 8.87 µM; GI50 (NCI/ADR-RES): 4.43 µM; GI50 (MDA-MB-231/ATCC): 2.22 µM; GI50 [1]: 6.17 µM; GI50 (Melanoma cell lines): 4.57 µM; GI50 (MDA-MB-435 [2]): 4.14 µM; GI50 (MDA-MB-435 [3]): 5.43 µM; GI50 [4]: 5.37 µM
"c1ccc2[nH]c(-c3cc(-c4ccc5c(c4)OCO5)n[nH]3)nc2c1 [6g, 2-(3-(benzo[d][1,3]dioxol-5-yl)-1H-pyrazol-5-yl)-1H-benzo[d]imidazole]",2.27 µM,3.37 µM,2.19 µM,3.66 µM,1.7 µM,4.33 µM,3.78 µM,4.58 µM,1.09 µM,3.86 µM,5.87 µM,4.77 µM,5.92 µM,2.74 µM,7.27 µM,2.12 µM,4.47 µM,3.97 µM,4.98 µM,4.57 µM,GI50 (NCI-H522; [5]): 1.98 µM; GI50 (HCC-2998): 3.74 µM; GI50 (UACC-257): 6 µM; GI50 (RPMI-8226): 1.14 µM; GI50 (SK-MEL-28): 4.85 µM; GI50 (NCI/ADR-RES): 4.08 µM; GI50 (MDA-MB-231/ATCC): 4.12 µM; GI50 [1]: 4.37 µM; GI50 (Melanoma cell lines): 3.02 µM; GI50 (MDA-MB-435 [2]): 3.57 µM; GI50 (MDA-MB-435 [3]): 3.12 µM; GI50 [4]: 4.57 µM
"COc1cc(-c2cc(-c3nc4ccccc4[nH]3)[nH]n2)cc(OC)c1OC [6f, 2-(3-(3,4,5-trimethoxyphenyl)-1H-pyrazol-5-yl)-1H-benzo[d]imidazole]",2.54 µM,3.32 µM,2.57 µM,7.16 µM,1.51 µM,2.77 µM,2.79 µM,3.66 µM,4.07 µM,3.43 µM,7.73 µM,6.43 µM,1.78 µM,2.24 µM,3.9 µM,1.8 µM,2.26 µM,2.35 µM,3.48 µM,3.64 µM,"GI50 (NCI-H522; [5]): 1.84 µM; GI50 (NCI-H522; read-out: GI50 values, Non-small cell lung, NCI-H522, 48 h): 1.87 µM; GI50 (HCC-2998): 7.1 µM; GI50 (UACC-257): 2.1 µM; GI50 (RPMI-8226): 1.2 µM; GI50 (SK-MEL-28): 2.72 µM; GI50 (NCI/ADR-RES): 2.88 µM; GI50 (MDA-MB-231/ATCC): 3.22 µM; GI50 [1]: 3.24 µM; GI50 (Melanoma cell lines): 2.09 µM; GI50 (MDA-MB-435 [2]): 0.93 µM; GI50 (MDA-MB-435 [3]): 2.35 µM; GI50 [4]: 2.4 µM"
